Like-named read-outs stand apart in the source and are kept apart here.
Experiments:
[1] = tested on: UM-UC-9 engineered cells; assay: Cell proliferation / short-term viability assay, CellTiter-Glo 144 h; assay type: cell-based, human; details: read-out: CTGlo 144 h UMUC9.5, G150
Method in brief: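 UM-UC-9 engineered assay-ready cells seeded at 500 cells/well in high-glucose DMEM/10% FBS, treated from dose-response plates, grown at 37° C, 5% CO2. CellTiter-Glo 2.0 luminescence read on day 7, with a day-0 pretreatment plate as T0 reference and DMSO wells as negative control.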

[2] = target: T1, His6-TEV-PPARγ-(234-505) (Homo sapiens, UniProt P37231); assay: TR-FRET Assay to Measure Co-R Peptide Recruitment to PPARγ; assay type: biochemical; details: Co-R peptide (SMRT-ID2) recruitment; top final concentration 20 μM; read-out: TR-FRET i-Ag; AC50
T1 construct: The His6-TEV-PPARγ-(234-505) protein for assay was expressed and purified; TEV cleavage site (N); made in house
T1 sequence (P37231 234-505): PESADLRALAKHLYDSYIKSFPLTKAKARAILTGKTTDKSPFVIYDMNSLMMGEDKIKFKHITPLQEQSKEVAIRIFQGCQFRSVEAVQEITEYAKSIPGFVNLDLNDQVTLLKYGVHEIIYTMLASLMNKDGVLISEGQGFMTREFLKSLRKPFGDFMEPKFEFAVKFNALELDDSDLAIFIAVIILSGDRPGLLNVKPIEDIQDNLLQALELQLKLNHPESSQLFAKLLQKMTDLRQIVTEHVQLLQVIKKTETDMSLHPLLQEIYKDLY
Method in brief: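 His-tagged PPARγ (or controls) was preincubated with compound for 20 minutes at room temperature, then 5 nM anti-His terbium antibody and 200 nM FITC-labeled SMRT-ID2 corepressor peptide (final) were added for a further hour. TR-FRET signal was normalized to percent response using 500 nM T0070907 and DMSO controls.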

SMILES: COc1cc(-c2cc(C(=O)N3CC[C@H](C(=O)NC4CCC(O)(C(F)(F)F)C(O)C4)CC34CC4)n[nH]2)c(F)cn1 (single isomer, unassigned) [Example 474-D]
- IC50 [1]: 2020 nM
- AC50 [2]: 331 nM

SMILES: COc1cc(-c2cc(C(=O)N3CC[C@H](C(=O)NC4CCC(O)(C(F)(F)F)C(O)C4)CC34CC4)n[nH]2)c(F)cn1 (single isomer, unassigned) [Example 474-E]
- IC50 [1]: 1930 nM
- AC50 [2]: 1500 nM

SMILES: COc1cc(-c2cc(C(=O)N3CC[C@H](C(=O)NC4CCC(O)(C(F)(F)F)C(O)C4)CC34CC4)n[nH]2)c(F)cn1 (single isomer, unassigned) [Example 474-F]
- IC50 [1]: 2540 nM
- AC50 [2]: 71.6 nM

SMILES: COc1cc(-c2cc(C(=O)N3CC[C@H](C(=O)NC(C)c4cc5n(n4)CCN(C)C5)CC34CC4)n[nH]2)c(F)cn1 (single isomer, unassigned) [Example 475-A]
- IC50 [1]: 2840 nM
- AC50 [2]: 433 nM

SMILES: COc1cc(-c2cc(C(=O)N3CC[C@H](C(=O)NC(C)c4cc5n(n4)CCN(C)C5)CC34CC4)n[nH]2)c(F)cn1 (single isomer, unassigned) [Example 475-B]
- IC50 [1]: 583 nM
- AC50 [2]: 102 nM

SMILES: CCc1cc(-c2cc(C(=O)N3CCC(C(=O)NCc4ncc(F)cc4Cl)CC34CC4)n[nH]2)c(F)cn1 (single isomer, unassigned) [Example 483-A]
- IC50 [1]: 1520 nM
- AC50 [2]: 216 nM

SMILES: CCc1cc(-c2cc(C(=O)N3CCC(C(=O)NCc4ncc(F)cc4Cl)CC34CC4)n[nH]2)c(F)cn1 (single isomer, unassigned) [Example 483-B]
- IC50 [1]: 7.2 nM
- AC50 [2]: 0.9 nM

SMILES: COc1cc(-c2cc(C(=O)N3CC[C@H](C(=O)Nc4cnn5cc(C(C)O)ccc45)CC34CC4)n[nH]2)c(F)cn1 (single isomer, unassigned) [Example 495-A]
- IC50 [1]: 287 nM
- AC50 [2]: 23.2 nM

SMILES: COc1cc(-c2cc(C(=O)N3CC[C@H](C(=O)Nc4cnn5cc(C(C)O)ccc45)CC34CC4)n[nH]2)c(F)cn1 (single isomer, unassigned) [Example 495-B]
- IC50 [1]: 144 nM
- AC50 [2]: 13.3 nM

SMILES: COc1cc(-c2cc(C(=O)N3CC[C@H](C(=O)NC4CCC(C(F)(F)F)C(O)C4)CC34CC4)n[nH]2)c(F)cn1 (single isomer, unassigned) [Example 501-A]
- IC50 [1]: 21.4 nM
- AC50 [2]: 7.8 nM

SMILES: COc1cc(-c2cc(C(=O)N3CC[C@H](C(=O)NC4CCC(C(F)(F)F)C(O)C4)CC34CC4)n[nH]2)c(F)cn1 (single isomer, unassigned) [Example 501-B]
- IC50 [1]: 258 nM
- AC50 [2]: 51.1 nM

SMILES: COc1cc(-c2cc(C(=O)N3CC[C@H](C(=O)NC4CCCn5cc(C(F)(F)F)nc54)CC34CC4)n[nH]2)c(F)cn1 (single isomer, unassigned) [Example 502-A]
- IC50 [1]: 750 nM
- AC50 [2]: 110 nM

SMILES: COc1cc(-c2cc(C(=O)N3CC[C@H](C(=O)NC4CCCn5cc(C(F)(F)F)nc54)CC34CC4)n[nH]2)c(F)cn1 (single isomer, unassigned) [Example 502-B]
- IC50 [1]: 66.1 nM
- AC50 [2]: 5.3 nM

SMILES: COc1cc(-c2cc(C(=O)N3CC[C@H](C(=O)NCC4CCNCC4(F)F)CC34CC4)n[nH]2)c(F)cn1 (single isomer, unassigned) [Example 511-A]
- IC50 [1]: 63.5 nM
- AC50 [2]: 17.2 nM

SMILES: COc1cc(-c2cc(C(=O)N3CC[C@H](C(=O)NCC4CCNCC4(F)F)CC34CC4)n[nH]2)c(F)cn1 (single isomer, unassigned) [Example 511-B]
- IC50 [1]: 78.4 nM
- AC50 [2]: 18.5 nM

SMILES: COc1cc(-c2cc(C(=O)N3CC[C@H](C(=O)Nc4cnn5c4CC(O)CC5)CC34CC4)n[nH]2)c(F)cn1 (single isomer, unassigned) [Example 514-A]
- IC50 [1]: 4200 nM
- AC50 [2]: 149 nM

SMILES: COc1cc(-c2cc(C(=O)N3CC[C@H](C(=O)Nc4cnn5c4CC(O)CC5)CC34CC4)n[nH]2)c(F)cn1 (single isomer, unassigned) [Example 514-B]
- IC50 [1]: 4310 nM
- AC50 [2]: 59.6 nM

SMILES: COc1cc(-c2cc(C(=O)N3CC[C@H](C(=O)NC45CC(CO)(C4)OC5C)CC34CC4)n[nH]2)c(F)cn1 (single isomer, unassigned) [Example 518-A]
- IC50 [1]: 3130 nM
- AC50 [2]: 130 nM

SMILES: COc1cc(-c2cc(C(=O)N3CC[C@H](C(=O)NC45CC(CO)(C4)OC5C)CC34CC4)n[nH]2)c(F)cn1 (single isomer, unassigned) [Example 518-B]
- IC50 [1]: > 10000 nM
- AC50 [2]: 996 nM

SMILES: N#Cc1cc(-c2cc(C(=O)N3CCC(C(=O)NC4CCC(O)(C(F)(F)F)CC4)CC34CC4)n[nH]2)ncn1 (single isomer, unassigned) [Example 528-A]
- IC50 [1]: > 10000 nM
- AC50 [2]: 2090 nM

SMILES: N#Cc1cc(-c2cc(C(=O)N3CCC(C(=O)NC4CCC(O)(C(F)(F)F)CC4)CC34CC4)n[nH]2)ncn1 (single isomer, unassigned) [Example 528-B]
- IC50 [1]: 405 nM
- AC50 [2]: 14 nM

SMILES: O=C(NC1CCC(O)(C(F)(F)F)CC1)C1CCN(C(=O)c2cc(-c3cc(Cl)ncc3F)[nH]n2)C2(CC2)C1 (single isomer, unassigned) [Example 529-A]
- IC50 [1]: 5560 nM
- AC50 [2]: 756 nM

SMILES: O=C(NC1CCC(O)(C(F)(F)F)CC1)C1CCN(C(=O)c2cc(-c3cc(Cl)ncc3F)[nH]n2)C2(CC2)C1 (single isomer, unassigned) [Example 529-B]
- IC50 [1]: 9.2 nM
- AC50 [2]: 1.4 nM

SMILES: COc1cc(-c2cc(C(=O)N3CCC(C(=O)N[C@@H](C)c4cccc(F)c4)CC3)n[nH]2)c(Cl)cn1 [Example 103, (8)-1-(5-(5-chloro-2-methoxypyridin-4-yl)-1H-pyrazole-3-carbonyl)-N-(1-(3-fluorophenyl)ethyl)piperidine-4-carboxamide]
- IC50 ([1]; Homo sapiens, UM-UC-9, 144 h): 320 nM
- AC50 [2]: 257 nM

SMILES: COc1cc(-c2cc(C(=O)N3CCC(C(=O)NCc4cccc(Cl)c4)CC3)n[nH]2)c(Cl)cn1 [Example 112, 1-[5-(5-chloro-2-methoxypyridin-4-yl)-1H-pyrazole-3-carbonyl]-N-[(3-chlorophenyl)methyl]piperidine-4-carboxamide]
- IC50 ([1]; Homo sapiens, UM-UC-9, 144 h): 111 nM
- AC50 [2]: 30.3 nM

SMILES: COc1cc(-c2cc(C(=O)N3CCC(C(=O)NC4CCN(c5ccccc5)C4)CC3)n[nH]2)c(Cl)cn1 (stereo not drawn) [Example 117, 1-[5-(5-chloro-2-methoxypyridin-4-yl)-1H-pyrazole-3-carbonyl]-N-(1-phenylpyrrolidin-3-yl)piperidine-4-carboxamide]
- IC50 ([1]; Homo sapiens, UM-UC-9, 144 h): 293 nM
- AC50 [2]: 56.2 nM

SMILES: COc1cc(-c2cc(C(=O)N3CCC(C(=O)NCc4cn5ccccc5n4)CC3)n[nH]2)c(Cl)cn1 [Example 119, 1-(5-(5-chloro-2-methoxypyridin-4-yl)-1H-pyrazole-3-carbonyl)-N-(imidazo[1,2-a]pyridin-2-ylmethyl)piperidine-4-carboxamide]
- IC50 ([1]; Homo sapiens, UM-UC-9, 144 h): > 5000 nM
- AC50 [2]: 337 nM

SMILES: COc1cc(-c2cc(C(=O)N3CCC(C(=O)NCc4ccc(Cl)cn4)CC3)n[nH]2)c(Cl)cn1 [Example 120, 1-(5-(5-chloro-2-methoxypyridin-4-yl)-1H-pyrazole-3-carbonyl)-N-((5-chloropyridin-2-yl)methyl)piperidine-4-carboxamide]
- IC50 ([1]; Homo sapiens, UM-UC-9, 144 h): 766 nM
- AC50 [2]: 227 nM

SMILES: COc1cc(-c2cc(C(=O)N3CCC(C(=O)NCc4ccc5[nH]ccc5c4)CC3)n[nH]2)c(Cl)cn1 [Example 122, N-((1H-indol-5-yl)methyl)-1-(5-(5-chloro-2-methoxypyridin-4-yl)-1H-pyrazole-3-carbonyl)piperidine-4-carboxamide]
- IC50 ([1]; Homo sapiens, UM-UC-9, 144 h): 66.1 nM
- AC50 [2]: 11 nM

SMILES: COc1cc(-c2cc(C(=O)N3CCC(C(=O)NCc4c(F)ccc(F)c4F)CC3)n[nH]2)c(Cl)cn1 [Example 123, 1-(5-(5-chloro-2-methoxypyridin-4-yl)-1H-pyrazole-3-carbonyl)-N-(2,3,6-trifluorobenzyl)piperidine-4-carboxamide]
- IC50 ([1]; Homo sapiens, UM-UC-9, 144 h): 100 nM
- AC50 [2]: 12.8 nM

SMILES: COc1cc(-c2cc(C(=O)N3CCC(C(=O)NCc4cn(C)nc4C)CC3)n[nH]2)c(Cl)cn1 [Example 124, 1-(5-(5-chloro-2-methoxypyridin-4-yl)-1H-pyrazole-3-carbonyl)-N-((1,3-dimethyl-1H-pyrazol-4-yl)methyl)piperidine-4-carboxamide]
- IC50 ([1]; Homo sapiens, UM-UC-9, 144 h): 5020 nM
- AC50 [2]: 982 nM

SMILES: COc1cc(-c2cc(C(=O)N3CCC(C(=O)NCc4cc(F)ccc4Cl)CC3)n[nH]2)c(Cl)cn1 [Example 125, 1-(5-(5-chloro-2-methoxypyridin-4-yl)-1H-pyrazole-3-carbonyl)-N-(2-chloro-5-fluorobenzyl)piperidine-4-carboxamide]
- IC50 ([1]; Homo sapiens, UM-UC-9, 144 h): 301 nM
- AC50 [2]: 24.6 nM

SMILES: COc1cc(-c2cc(C(=O)N3CCC(C(=O)Nc4cnn(CC(F)(F)F)c4)CC3)n[nH]2)c(Cl)cn1 [Example 126, 1-(5-(5-chloro-2-methoxypyridin-4-yl)-1H-pyrazole-3-carbonyl)-N-(1-(2,2,2-trifluoroethyl)-1H-pyrazol-4-yl)piperidine-4-carboxamide]
- IC50 ([1]; Homo sapiens, UM-UC-9, 144 h): 2460 nM
- AC50 [2]: 707 nM

Source: patent publication US12606541B2, “PPARg modulators and methods of use” (Eisai R&D Management Co., Ltd., priority 2020, dated 2026)
